The values that follow are results of earlier work, collected in article PMC2686615 (International Immunology, 2009).

In one data set the test system is NOD.DQ8 mice. The conditions noted are these: oral response to gliadin, 26 peptides tested; cited from earlier work.
A further data set concerns HLA-DQ transgenic mice. The conditions noted are these: immunization with peptides; cited from earlier work.

As to QSTYQLLQE [gliadin 147–155], in the data set on NOD.DQ8 mice, the T cell response result was “negative”. With VVTVKVMGD [allergen P2 105–113], the T cell response entry with HLA-DQ transgenic mice is listed as “failed to stimulate T cell responses”.

Turning to ENVVVKVYTV [allergen P2 102–110], the T cell response result with HLA-DQ transgenic mice was “elicited T cell responses”.
